According to the NIST ThermoML archive (doi:10.1016/j.jct.2008.01.010):
Several values for one entry are separate records, joined by “and”; a condition that tells them apart may be missing. Equal entries are not always repeated. ± gives the expanded uncertainty stated by the source.

Details: Crystal; for mass density: 298.15 K, 101.33 kPa, Pycnometric method; for vapor or sublimation pressure: Calculated from knudsen effusion weight loss

Oc1nncc2ccccc12 [1(2H)-phthalazinone]
mass density: 1290 ± 20 kg/m3 | vapor or sublimation pressure (348.12 K): 0.0001427 ± 7.2e-06 kPa and 0.0001428 ± 7.2e-06 kPa and 0.0001398 ± 7e-06 kPa | vapor or sublimation pressure (350.14 K): 0.0001731 ± 8.7e-06 kPa and 0.0001683 ± 8.4e-06 kPa and 0.0001668 ± 8.4e-06 kPa | vapor or sublimation pressure (352.15 K): 0.0002116 ± 1.1e-05 kPa and 0.0002079 ± 1e-05 kPa | vapor or sublimation pressure (354.18 K): 0.0002587 ± 1.3e-05 kPa and 0.0002577 ± 1.3e-05 kPa and 0.0002582 ± 1.3e-05 kPa | vapor or sublimation pressure (356.2 K): 0.0003206 ± 1.6e-05 kPa and 0.0003187 ± 1.6e-05 kPa and 0.0003134 ± 1.6e-05 kPa | vapor or sublimation pressure (358.15 K): 0.0003799 ± 1.9e-05 kPa and 0.0003853 ± 1.9e-05 kPa and 0.0003771 ± 1.9e-05 kPa | vapor or sublimation pressure (360.2 K): 0.0004783 ± 2.4e-05 kPa and 0.0004761 ± 2.4e-05 kPa and 0.0004538 ± 2.3e-05 kPa | vapor or sublimation pressure (362.14 K): 0.0005802 ± 2.9e-05 kPa and 0.0005665 ± 2.8e-05 kPa and 0.0005564 ± 2.8e-05 kPa | vapor or sublimation pressure (364.18 K): 0.0006992 ± 3.5e-05 kPa and 0.0006815 ± 3.4e-05 kPa and 0.000676 ± 3.4e-05 kPa | vapor or sublimation pressure (366.14 K): 0.0008356 ± 4.2e-05 kPa and 0.0008316 ± 4.2e-05 kPa and 0.000817 ± 4.1e-05 kPa | vapor or sublimation pressure (368.13 K): 0.0009681 ± 4.8e-05 kPa and 0.001004 ± 0.0001 kPa and 0.0009903 ± 4.9e-05 kPa

O=c1[nH][nH]c(=O)c2ccccc12 [2,3-dihydro-1,4-phthalazinedione]
mass density: 1390 ± 20 kg/m3 | vapor or sublimation pressure (428.18 K): 0.0001501 ± 7.5e-06 kPa and 0.00015 ± 7.5e-06 kPa and 0.0001468 ± 7.4e-06 kPa | vapor or sublimation pressure (430.16 K): 0.0001786 ± 8.9e-06 kPa and 0.0001816 ± 9.1e-06 kPa and 0.0001711 ± 8.6e-06 kPa | vapor or sublimation pressure (432.24 K): 0.0002109 ± 1.1e-05 kPa and 0.000215 ± 1.1e-05 kPa and 0.0002114 ± 1.1e-05 kPa | vapor or sublimation pressure (434.18 K): 0.0002433 ± 1.2e-05 kPa and 0.0002441 ± 1.2e-05 kPa | vapor or sublimation pressure (436.19 K): 0.0002898 ± 1.5e-05 kPa and 0.000293 ± 1.5e-05 kPa and 0.0002878 ± 1.4e-05 kPa | vapor or sublimation pressure (438.26 K): 0.0003477 ± 1.7e-05 kPa and 0.0003523 ± 1.8e-05 kPa and 0.0003443 ± 1.7e-05 kPa | vapor or sublimation pressure (440.19 K): 0.0004064 ± 2e-05 kPa and 0.0003929 ± 2e-05 kPa | vapor or sublimation pressure (442.17 K): 0.000473 ± 2.4e-05 kPa and 0.000486 ± 2.4e-05 kPa | vapor or sublimation pressure (444.26 K): 0.0005785 ± 2.9e-05 kPa and 0.0005761 ± 2.9e-05 kPa | vapor or sublimation pressure (446.19 K): 0.0006629 ± 3.3e-05 kPa and 0.0006749 ± 3.4e-05 kPa and 0.0006616 ± 3.3e-05 kPa | vapor or sublimation pressure (448.22 K): 0.0007985 ± 4e-05 kPa and 0.0007997 ± 4e-05 kPa and 0.0007669 ± 3.8e-05 kPa | vapor or sublimation pressure (450.28 K): 0.0009283 ± 4.6e-05 kPa and 0.0009382 ± 4.7e-05 kPa
